Source: patent US20220389477A1, “METHOD FOR EVALUATING ANTIBIOTIC SUSCEPTIBILITY” (Vrije Universiteit Brussel, priority 2019, published 2022)
Values after ≈ are worked out from the molar mass of the structure shown. Like-named read-outs stand apart in the source and are kept apart here.

How the values were obtained:
Acinetobacter Species = experiment: Optical third-derivative MIC method, culture in broth; format: cell-based; settings: AC/2990; for MIC: Acinetobacter
From the text: (§1) The method of FIG. 1 starts at a time equal to zero, t0 (1). Preferably, said t0 is the moment a pure bacteria culture is finished being prepared. Alternatively, said t0 is the moment all wells contain both said bacteria culture and said antimicrobial drug. After the starting of the experiment each well is periodically illuminated with a light source and the intensity of the transmitted light is detected with a photodetector (2). Preferably, each well is illuminated and the intensity of the transmitted light is detected every hour (2). More preferably, each well is illuminated and the intensity of the transmitted light is detected every 5 to 15 min. After a predetermined time length, preferably after 4 hours, a first, a second and a third derivative of said measured intensity is calculated (3) in a first and a second time frame for each well. Preferably, said second time frame is the last measured time frame after the test has been running for said predetermined time length, and said first time frame is the time frame preceding the second time frame. More preferably, said first time frame is between two and three hours and said second time frame is between three and four hours. After the calculation of said derivatives, said first derivative in said second time frame of said reference well is compared to a growth speed threshold value (4). Preferably, said growth speed threshold value is 0.166 (4). If said first derivative in said second time frame of said reference well is larger than or equal to said growth speed threshold value said bacteria culture is classified as Type I (4). If said first derivative in said second time frame of said reference well is smaller than said growth speed threshold value said bacteria culture is classified as Type II (4). Subsequently, independent of the classification of the bacteria culture according to the two types, the method comprises the following steps which are performed for each well or for all wells except said reference well. Both said first and said second time frames are evaluated to see if there is an inflection point present in the second derivative in said first and/or said second time frame (5).
(§2) If said first and/or said second time frame comprise said inflection point than said third derivative in said first time frame is compared to said third derivative in said second time frame (6). If said third derivative in said first time frame is larger than said third derivative in said second time frame, then said first time frame and said second time frame are selected as a first and second time frame to be used in a minimal inhibitory concentration determination method (10). If said third derivative in said first time frame is not larger than said third derivative in said second time frame, then said well is illuminated again after a certain time period, preferably an hour, more preferably 5 to 15 min after said predetermined time length said, with a light source and the intensity of the transmitted light is detected with a photodetector forming a new time frame subsequent to said second time frame (7). A third derivative, and possibly also a first and/or a second derivative, is calculated in said new time frame (7). Further, in step (7) a new first time frame is put equal to said second time frame and a new second time frame to equal to said new time frame. Subsequently, said third derivative in said new first time frame is compared to said third derivative in said new second time frame (8). If said derivative in said new first time frame is larger than said third derivative in said new second time frame, then said new first time frame and said new second time frame are selected as a first and second time frame to be used in a minimal inhibitory concentration determination method (10). […]

[1] = tested on: Klebsiella pneumonia culture; experiment: as above; format: cell-based; settings: for HR? at MIC (25%) / HR? at MIC (40%) / HR? at MIC (60%) / HR? at MIC (75%): ratio MIC T2/T1; for MIC: Klebsiella pneumoniae
From the text: as §1, §2

- MIC (Acinetobacter Species; 2 h-3 h, omitted from determination (Type II), read-out: MIC (25%) T1): 0.25 µg/mL (≈ 0.835 µM)
- MIC (Acinetobacter Species; 2 h-3 h, read-out: MIC (40%) T1): 0.25 µg/mL (≈ 0.835 µM)
- MIC (Acinetobacter Species; 2 h-3 h, read-out: MIC (60%) T1): < 0.125 µg/mL
- MIC (Acinetobacter Species; 2 h-3 h, read-out: MIC (75%) T1): < 0.125 µg/mL
- MIC (Acinetobacter Species; 3 h-4 h, omitted from determination (Type II), read-out: MIC (25%) T2): 128 µg/mL (≈ 428 µM)
- MIC (Acinetobacter Species; 3 h-4 h, read-out: MIC (40%) T2): 0.25 µg/mL (≈ 0.835 µM)
- MIC (Acinetobacter Species; 3 h-4 h, read-out: MIC (60%) T2): < 0.125 µg/mL
- MIC (Acinetobacter Species; 3 h-4 h, read-out: MIC (75%) T2): < 0.125 µg/mL
- MIC (Acinetobacter Species; FIG. 5A, overall conclusion, read-out: MIC value determined by the method): 0.25 µg/mL (≈ 0.835 µM)
- MIC ([1]; 3 h, KP/38.3002, FIG. 5C, Table 5, 3 h-4 h, read-out: MIC (25%) T1): 16 µg/mL (≈ 53.4 µM)
- MIC ([1]; 3 h, KP/38.3002, FIG. 5C, Table 5, 3 h-4 h, read-out: MIC (40%) T1): 0.25 µg/mL (≈ 0.835 µM)
- MIC ([1]; 3 h, KP/38.3002, FIG. 5C, Table 5, 3 h-4 h, read-out: MIC (60%) T1): 0.25 µg/mL (≈ 0.835 µM)
- MIC ([1]; 3 h, KP/38.3002, FIG. 5C, Table 5, 3 h-4 h, read-out: MIC (75%) T1): 0.25 µg/mL (≈ 0.835 µM)
- MIC ([1]; 3 h, KP/153.4346, 3 h-4 h, read-out: MIC (25%) T1): > 256 µg/mL
- MIC ([1]; 3 h, KP/153.4346, 3 h-4 h, read-out: MIC (40%) T1): > 256 µg/mL
- MIC ([1]; 3 h, KP/153.4346, 3 h-4 h, read-out: MIC (60%) T1): 0.5 µg/mL (≈ 1.67 µM)
- MIC ([1]; 3 h, KP/153.4346, 3 h-4 h, read-out: MIC (75%) T1): 0.5 µg/mL (≈ 1.67 µM)
- MIC ([1]; 3 h, MP/072.3489, 3 h-4 h, read-out: MIC (25%) T1): 0.5 µg/mL (≈ 1.67 µM)
- MIC ([1]; 3 h, MP/072.3489, 3 h-4 h, read-out: MIC (40%) T1): 0.5 µg/mL (≈ 1.67 µM)
- MIC ([1]; 3 h, MP/072.3489, 3 h-4 h, read-out: MIC (60%) T1): 0.35 µg/mL (≈ 1.17 µM)
- MIC ([1]; 3 h, MP/072.3489, 3 h-4 h, read-out: MIC (75%) T1): < 0.125 µg/mL
- MIC ([1]; 4 h, KP/38.3002, FIG. 5C, Table 5, 4 h-5 h, read-out: MIC (25%) T2): 16 µg/mL (≈ 53.4 µM)
- MIC ([1]; 4 h, KP/38.3002, FIG. 5C, Table 5, 4 h-5 h, read-out: MIC (40%) T2): 8 µg/mL (≈ 26.7 µM)
Compound: C[C@@H](O)[C@H]1C(=O)N2C(C(=O)O)=C(SCCN=CN)C[C@H]12 [imipenem]
- HR? at MIC (40%) (Acinetobacter Species; ratio MIC T2/T1): no (If the ratio of the MIC value in the second time frame over the MIC value in the first time frame is lower than or equal to 4 then the ratio is labelled not to be heteroresistant)
- HR? at MIC (60%) (Acinetobacter Species; ratio MIC T2/T1): no (If the ratio of the MIC value in the second time frame over the MIC value in the first time frame is lower than or equal to 4 then the ratio is labelled not to be heteroresistant)
- HR? at MIC (75%) (Acinetobacter Species; ratio MIC T2/T1): no (If the ratio of the MIC value in the second time frame over the MIC value in the first time frame is lower than or equal to 4 then the ratio is labelled not to be heteroresistant)
- HR? at MIC (25%) (Acinetobacter Species; ratio MIC T2/T1, omitted (Type II)): yes (If the ratio of the MIC value in the second time frame over the MIC value in the first time frame is higher than or equal to 8 then the ratio is labelled to be heteroresistant)
- HR? at MIC (25%) ([1]; KP/38.3002, Table 5): no (If the ratio of the MIC value in the second time frame over the MIC value in the first time frame is lower than or equal to 4 then the ratio is labelled not to be heteroresistant)
- HR? at MIC (40%) ([1]; KP/38.3002, Table 5): yes (If the ratio of the MIC value in the second time frame over the MIC value in the first time frame is higher than or equal to 8 then the ratio is labelled to be heteroresistant)
- HR? at MIC (60%) ([1]; KP/38.3002, Table 5): yes (If the ratio of the MIC value in the second time frame over the MIC value in the first time frame is higher than or equal to 8 then the ratio is labelled to be heteroresistant)
- HR? at MIC (75%) ([1]; KP/38.3002, Table 5): yes (If the ratio of the MIC value in the second time frame over the MIC value in the first time frame is higher than or equal to 8 then the ratio is labelled to be heteroresistant)
- HR? at MIC (25%) ([1]; KP/38.3002, Table 10): yes (If the ratio of the MIC value in the second time frame over the MIC value in the first time frame is higher than or equal to 8 then the ratio is labelled to be heteroresistant)
- HR? at MIC (40%) ([1]; KP/38.3002, Table 10): yes (If the ratio of the MIC value in the second time frame over the MIC value in the first time frame is higher than or equal to 8 then the ratio is labelled to be heteroresistant)
- HR? at MIC (60%) ([1]; KP/38.3002, Table 10): yes (If the ratio of the MIC value in the second time frame over the MIC value in the first time frame is higher than or equal to 8 then the ratio is labelled to be heteroresistant)
- HR? at MIC (75%) ([1]; KP/38.3002, Table 10): yes (If the ratio of the MIC value in the second time frame over the MIC value in the first time frame is higher than or equal to 8 then the ratio is labelled to be heteroresistant)
- HR? at MIC (40%) ([1]; KP/38.3002, Table 11): yes (If the ratio of the MIC value in the second time frame over the MIC value in the first time frame is higher than or equal to 8 then the ratio is labelled to be heteroresistant)
- HR? at MIC (60%) ([1]; KP/38.3002, Table 11): yes (If the ratio of the MIC value in the second time frame over the MIC value in the first time frame is higher than or equal to 8 then the ratio is labelled to be heteroresistant)
- HR? at MIC (75%) ([1]; KP/38.3002, Table 11): yes (If the ratio of the MIC value in the second time frame over the MIC value in the first time frame is higher than or equal to 8 then the ratio is labelled to be heteroresistant)
- HR? at MIC (25%) ([1]; KP/153.4346): no (If the ratio of the MIC value in the second time frame over the MIC value in the first time frame is lower than or equal to 4 then the ratio is labelled not to be heteroresistant)
- HR? at MIC (40%) ([1]; KP/153.4346): no (If the ratio of the MIC value in the second time frame over the MIC value in the first time frame is lower than or equal to 4 then the ratio is labelled not to be heteroresistant)
- HR? at MIC (60%) ([1]; KP/153.4346): yes (If the ratio of the MIC value in the second time frame over the MIC value in the first time frame is higher than or equal to 8 then the ratio is labelled to be heteroresistant)
- HR? at MIC (75%) ([1]; KP/153.4346): yes (If the ratio of the MIC value in the second time frame over the MIC value in the first time frame is higher than or equal to 8 then the ratio is labelled to be heteroresistant)
